Source: PubChem BioAssay (NCI)
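Growth conditions: 96-well plates. Treatment: test compound, 48 hours, 5 concentrations. Analysis: linear interpolation between bracketing concentrations; unreached endpoints set to highest concentration. TGI is the concentration that stops growth completely.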

How the values were obtained:
Test in all cases: NCI tumour cell line growth inhibition, 48 h
[1] = tested on: UO-31 renal
[2] = tested on: MOLT-4 leukemia
[3] = tested on: SW-620 colon
[4] = tested on: LXFL 529 NSCLC
[5] = tested on: RPMI-8226 leukemia
[6] = tested on: K-562 leukemia
[7] = tested on: SF-295 CNS
[8] = tested on: SNB-78 CNS
[9] = tested on: NCI-H226 lung

| Compound | TGI [1] | TGI [2] | TGI [3] | TGI [4] | TGI [5] | TGI [6] | TGI [7] | TGI [8] | TGI [9] |
| --- | --- | --- | --- | --- | --- | --- | --- | --- | --- |
| CN=C(N)NC | > 100 µM | > 100 µM | > 100 µM | > 100 µM | > 100 µM | > 100 µM | > 100 µM | > 100 µM | > 100 µM |
| CC1(C)Oc2ccccc2[N+]([O-])=C1c1ccccc1 | > 100 µM | > 100 µM | > 100 µM | > 100 µM | > 100 µM | > 100 µM | > 100 µM | > 100 µM | – |
| CCOc1ccc(N=Cc2ccc3ccccc3n2)cc1 | > 100 µM | > 100 µM | > 100 µM | > 100 µM | > 100 µM | > 100 µM | > 100 µM | > 100 µM | > 100 µM |
| COC(=O)C1=C(O)c2cc3c(cc2[C@H](c2cc(OC)c(OC)c(OC)c2)C1)OCO3 | 36.3 µM | 89.6 µM | > 100 µM | > 100 µM | > 100 µM | > 100 µM | > 100 µM | > 100 µM | > 100 µM |
| O=C(COC(=O)c1cccc2c(=O)c3ccccc3[nH]c12)Nc1ccc(S(=O)(=O)Nc2ncccn2)cc1 | > 100 µM | 71 µM | > 100 µM | > 100 µM | > 100 µM | 90.7 µM | > 100 µM | 74.4 µM | > 100 µM |
| N/C(=N\N=C\c1ccc(O)c(O)c1)NO | > 100 µM | > 100 µM | > 100 µM | > 100 µM | > 100 µM | > 100 µM | > 100 µM | > 100 µM | > 100 µM |
| COc1ccc2c(c1OC)C(C=C(c1ccccc1)c1ccccc1)CN(C)C2 (stereo not given) | > 100 µM | 64.7 µM | 26.2 µM | 34.7 µM | 50.8 µM | 25.1 µM | 80.3 µM | > 100 µM | 98.6 µM |
| COc1cc2ccc3c4cc(OC)c(OC(C)C)cc4c[n+](C)c3c2cc1OC | > 100 µM | > 100 µM | > 100 µM | > 100 µM | > 100 µM | > 100 µM | > 100 µM | – | > 100 µM |
| Cn1cc2ccccc2c1-c1nc(F)nc(Nc2ccc(N)cc2)n1 | 53.8 µM | 65.5 µM | 35 µM | 30.9 µM | 76.5 µM | > 100 µM | 50.4 µM | 77.7 µM | 32.7 µM |
| CC(C)=CCC/C(C)=C/CC/C(C)=C/C1CCC(=O)C1(C)C (stereo not given) | 31.7 µM | 41 µM | – | 31.1 µM | 42.4 µM | 38 µM | 33 µM | 53.4 µM | 29.4 µM |
| [N-]=[N+]=NC1C2CC3CC(C2)CC1C3 (stereo not given) | > 100 µM | > 100 µM | > 100 µM | > 100 µM | > 100 µM | > 100 µM | > 100 µM | > 100 µM | > 100 µM |
| CC(C)Cc1ccc(C(C)/C=C2\CCC(CN3CCCCC3)C2=O)cc1 (stereo not given) | 23.7 µM | 5.7 µM | 13.4 µM | 3.55 µM | 6.65 µM | 9.19 µM | 26.5 µM | 35.1 µM | 32.2 µM |
